# Paper PMC9050923, “6,N^2-Diaryl-1,3,5-triazine-2,4-diamines: synthesis, antiproliferative activity and 3D-QSAR modeling” (RSC Advances, 2020)
# Like-named read-outs stand apart in the source and are kept apart here.
# Columns and labels:
# MDA-MB231 = test: MTT assay, MDA-MB231 breast cancer cells; type: cell-based; settings: Homo sapiens, MDA-MB-231; for viability at 10 µM: 72 h after the treatment, mean of three independent experiments, read-out: Percentage of cell viability MDA-MB231
# Summary of the method: (§1)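 Cells seeded 24 h at 37 °C, 5% CO2, then treated 72 h with a concentration range; single-point screen at 10 μM gave % viability. MTT (0.5 mg/mL, 4 h), DMSO-solubilised, A570; GI50 from sigmoidal curves, mean of three experiments.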
# SKBR-3 = test: MTT assay, SKBR-3 breast cancer cells; type: cell-based; settings: for viability at 10 µM / GI50: Homo sapiens, SK-BR-3, MTT; for viability at 10 µM: 72 h after the treatment, mean of three independent experiments, read-out: Percentage of cell viability SKBR-3; for GI50: 72 h, mean of three independent experiments ± SEM
# Summary of the method: as §1
# MCF-7 = test: MTT assay, MCF-7 breast cancer cells; type: cell-based; settings: Homo sapiens; for viability at 10 µM: MCF7, 10 μM, 72 h after the treatment, mean of three independent experiments, read-out: Percentage of cell viability MCF-7; for GI50: MCF7, 72 h, mean of three independent experiments ± SEM
# Summary of the method: as §1
# MCF-10A = test: MTT assay, MCF-10A normal breast cells; type: cell-based; settings: Homo sapiens, 72 h, read-out: GI50 (μM) ± SEM MCF-10A
# Method: All the compounds, selected for determination of GI50 values against MDA-MB231 cells, were also used for the experiments with MCF-10A normal breast cells.
# The cytotoxic activity of 6,N^2-diaryl-1,3,5-triazine-2,4-diamines (1–126) was evaluated against three breast carcinoma cell lines (MDA-MB231, SKBR-3, and MCF-7) and normal breast cell line (MCF-10A) by MTT assay.[22] All cells were obtained from the American Type Culture Collection and were grown in 10% fetal bovine serum and 1% pen-strep antibiotic supplemented media (DMEM for MDA-MB231 and SKBR-3, RPMI for MCF-7, and MEGM for MCF-10A). For MTT assay, 20 000 to 75 000 cells per mL (based on the doubling time for each cell line) were seeded in 96 well plates and incubated for 24 h at 37 °C in 5% CO2 incubator. Then, compounds at different concentrations were added followed by the incubation at 37 °C for 72 h. After that, MTT solution (0.5 mg mL^−1) was added and the plates were incubated for another 4 h. The supernatant was then discarded and 100 μL of DMSO was added to each well. The plates were then read by Tecan NanoQuant (model: infinite m200 pro) plate reader and absorbance was measured at 570 nm. GI50 values were calculated using sigmoidal concentration–response curves (see ESI ^†) generated using the GraphPad Prism 7 program. Three independent experiments were carried out and the data were represented as mean of the three experiments.
# [1] = 72 h, MTT, mean of three independent experiments ± SEM, read-out: GI50 (μM) ± SEM MDA-MB231
# [2] = −log[GI50], MDA-MB231, read-out: Experimental pGI50 (converted)
Compound,melting point,viability at 10 µM (MDA-MB231; MTT),viability at 10 µM (SKBR-3),viability at 10 µM (MCF-7),GI50 (MDA-MB231; [1]),GI50 (MDA-MB231; [2]),GI50 (SKBR-3),GI50 (MCF-7),GI50 (MCF-10A),"activity against SKBR-3 cells (in words) (SKBR-3; SAR discussion, compared with MDA-MB231)"
"COc1ccc(Nc2nc(N)nc(-c3cccc(C)c3)n2)cc1 (hydrate or solvate) [Compound 57, N ^2-(4-Methoxyphenyl)-6-(3-methylphenyl)-1,3,5-triazine-2,4-diamine]",150 to 152 °C,–,–,–,–,–,–,–,–,–
"Nc1nc(Nc2ccc(F)cc2)nc(-c2ccccc2)n1 [Compound 3, N ^2-(4-Fluorophenyl)-6-phenyl-1,3,5-triazine-2,4-diamine]",172 to 174 °C,81%,84%,100%,–,–,–,–,–,–
"COc1ccccc1Nc1nc(N)nc(-c2cccs2)n1 [Compound 122, N ^2-(2-Methoxyphenyl)-6-(thiophen-2-yl)-1,3,5-triazine-2,4-diamine]",165 to 167 °C,78%,97%,91%,–,–,–,–,–,–
"Nc1nc(Nc2ccc(F)cc2)nc(-c2ccc(OC(F)(F)F)cc2)n1 [Compound 91, N ^2-(4-Fluorophenyl)-6-(4-(trifluoromethoxy)phenyl)-1,3,5-triazine-2,4-diamine]",139 to 140 °C,53%,86%,100%,–,–,–,–,–,–
"Nc1nc(Nc2ccccc2F)nc(-c2cccs2)n1 (hydrate or solvate) [Compound 116, N ^2-(2-Fluorophenyl)-6-(thiophen-2-yl)-1,3,5-triazine-2,4-diamine]",165 to 167 °C,–,–,–,–,–,–,–,–,–
COc1ccc(-c2nc(N)nc(Nc3cccc(Cl)c3)n2)cc1 [Compound 74],–,22%,45%,86%,1.33 ± 0.17 µM,1.32 µM,0.18 ± 0.04 µM,18.3 ± 1.11 µM,> 25 µM,–
CN(C)c1ccc(-c2nc(N)nc(Nc3ccccc3F)n2)cc1 [Compound 101],–,28%,51%,88%,0.06 ± 0.001 µM,0.0603 µM,0.29 ± 0.04 µM,> 20 µM,> 25 µM,–
COc1ccc(-c2nc(N)nc(Nc3ccccc3Cl)n2)cc1 [Compound 73],–,10%,47%,84%,0.23 ± 0.03 µM,0.229 µM,1.1 ± 0.01 µM,> 20 µM,> 25 µM,equipotent
Cc1ccc(Nc2nc(N)nc(-c3cccs3)n2)cc1 [Compound 121],–,49%,95%,97%,13.9 ± 1.74 µM,13.8 µM,> 20 µM,> 20 µM,> 25 µM,–
CN(C)c1ccc(-c2nc(N)nc(Nc3ccc(F)cc3)n2)cc1 [Compound 102],–,32%,88%,90%,7.2 ± 0.94 µM,7.24 µM,> 20 µM,> 20 µM,> 25 µM,–
COc1ccc(-c2nc(N)nc(Nc3cccc(C)c3)n2)cc1 [Compound 77],–,22%,40%,79%,0.95 ± 0.04 µM,0.955 µM,3.38 ± 0.36 µM,> 20 µM,> 25 µM,–
COc1ccccc1Nc1nc(N)nc(-c2ccc(OC(F)(F)F)cc2)n1 [Compound 95],–,46%,81%,88%,12.8 ± 0.76 µM,12.9 µM,> 20 µM,> 20 µM,> 25 µM,–
COc1ccccc1Nc1nc(N)nc(-c2ccc(N(C)C)cc2)n1 [Compound 103],–,28%,48%,88%,4.17 ± 0.33 µM,4.17 µM,3.63 ± 0.23 µM,> 20 µM,> 25 µM,–
Nc1nc(Nc2cccnc2)nc(-c2ccc(OC(F)(F)F)cc2)n1 [Compound 99],–,33%,81%,85%,11.5 ± 1.51 µM,11.5 µM,> 20 µM,> 20 µM,> 25 µM,–
Cc1ccc(-c2nc(N)nc(Nc3ccc(F)cc3)n2)cc1 [Compound 62],–,48%,78%,100%,10.7 ± 0.73 µM,10.7 µM,> 20 µM,20.2 ± 1.95 µM,> 25 µM,–
"Cc1cccc(-c2nc(N)nc(Nc3ccc(C(C)C)cc3)n2)c1 (hydrate or solvate) [Compound 59, N ^2-(4-Isopropylphenyl)-6-(3-methylphenyl)-1,3,5-triazine-2,4-diamine]",134 to 136 °C,–,–,–,–,–,–,–,–,–
"Nc1nc(Nc2ccccc2Cl)nc(-c2ccccc2)n1 (hydrate or solvate) [Compound 4, N ^2-(2-Chlorophenyl)-6-phenyl-1,3,5-triazine-2,4-diamine]",82 to 84 °C,–,–,–,–,–,–,–,–,–
"COc1ccc(Nc2nc(N)nc(-c3cccs3)n2)cc1 (hydrate or solvate) [Compound 123, N ^2-(4-Methoxyphenyl)-6-(thiophen-2-yl)-1,3,5-triazine-2,4-diamine]",139 to 141 °C,–,–,–,–,–,–,–,–,–
Nc1nc(Nc2ccc(Br)cc2)nc(-c2cccs2)n1 [Compound 120],–,46%,87%,88%,11.7 ± 1.39 µM,11.7 µM,> 20 µM,> 20 µM,> 25 µM,–
Cc1ccc(Nc2nc(N)nc(-c3cccc(F)c3)n2)cc1 [Compound 17],–,29%,90%,71%,3.96 ± 0.17 µM,3.98 µM,> 20 µM,> 20 µM,> 25 µM,–
Cc1ccc(-c2nc(N)nc(Nc3ccccc3F)n2)cc1 [Compound 61],–,50%,79%,73%,12.2 ± 1.15 µM,12.3 µM,> 20 µM,> 20 µM,> 25 µM,–
COc1ccc(Nc2nc(N)nc(-c3cccc(F)c3)n2)cc1 [Compound 18],–,46%,74%,76%,6.18 ± 0.43 µM,6.17 µM,16.6 ± 1.38 µM,> 20 µM,> 25 µM,–
Cc1ccc(Nc2nc(N)nc(-c3cccc(C)c3)n2)cc1 [Compound 56],–,12%,62%,67%,0.17 ± 0.02 µM,0.17 µM,1.26 ± 0.18 µM,> 20 µM,> 25 µM,–
"Cc1cccc(-c2nc(N)nc(Nc3ccc(F)cc3)n2)c1 (hydrate or solvate) [Compound 53, N ^2-(4-Fluorophenyl)-6-(3-methylphenyl)-1,3,5-triazine-2,4-diamine]",138 to 139 °C,–,–,–,–,–,–,–,–,–
Nc1nc(Nc2ccccc2)nc(-c2ccc(OCc3ccccc3)cc2)n1 [Compound 110],–,51%,75%,100%,13.4 ± 1.18 µM,13.5 µM,> 20 µM,> 20 µM,> 25 µM,–
COc1ccc(-c2nc(N)nc(Nc3ccccc3OC)n2)cc1 [Compound 78],–,50%,66%,57%,13.2 ± 0.93 µM,13.2 µM,2.15 ± 0.12 µM,> 20 µM,> 25 µM,–
Nc1nc(Nc2ccc(Br)cc2)nc(-c2cccc(F)c2)n1 [Compound 16],–,43%,89%,80%,13.1 ± 0.91 µM,13.2 µM,17.2 ± 1.07 µM,> 20 µM,> 25 µM,–
COc1ccc(-c2nc(N)nc(Nc3cccnc3)n2)cc1 [Compound 81],–,46%,77%,91%,14 ± 1.33 µM,–,15.6 ± 1.06 µM,> 20 µM,> 25 µM,–
